Assay results taken from article PMC10178848, “Modulating fast skeletal muscle contraction protects skeletal muscle in animal models of Duchenne muscular dystrophy” (The Journal of Clinical Investigation, 2023).
Read-outs that look alike come from different tables or passages of the source.

Tested on: GRMD plasma proteins
Type: in vivo, dog
[1] = EDG-5506 treatment to GRMD baseline, Decreased in GRMD

O=c1ccc(-c2cnc(OCC(F)(F)F)nc2)nn1Cc1cncc(F)c1 [EDG-5506]
Change from GRMD Baseline (fraction) (3-hydroxy-3-methylglutaryl-coenzyme A reductase (HMGCR), EDG-5506 treatment to GRMD baseline): 0.149 fraction | Change from GRMD Baseline (fraction) (3-hydroxy-3-methylglutaryl-coenzyme A reductase (HMGCR), Post-Treatment to GRMD baseline): -0.0053 fraction | Change from GRMD Baseline (fraction) (Annexin A5 (ANXA5), EDG-5506 treatment to GRMD baseline): 0.0604 fraction | Change from GRMD Baseline (fraction) (Annexin A5 (ANXA5), Post-Treatment to GRMD baseline): -0.0309 fraction | Change from GRMD Baseline (fraction) (Apolipoprotein M (APOM), EDG-5506 treatment to GRMD baseline): 0.1027 fraction | Change from GRMD Baseline (fraction) (Apolipoprotein M (APOM), Post-Treatment to GRMD baseline): -0.1149 fraction | Change from GRMD Baseline (fraction) (Bactericidal permeability-increasing protein (BPI), EDG-5506 treatment to GRMD baseline): 0.0745 fraction | Change from GRMD Baseline (fraction) (Bactericidal permeability-increasing protein (BPI), Post-Treatment to GRMD baseline): 0.1503 fraction | Change from GRMD Baseline (fraction) (Basigin (BSG), EDG-5506 treatment to GRMD baseline): 0.1541 fraction | Change from GRMD Baseline (fraction) (Basigin (BSG), Post-Treatment to GRMD baseline): -0.07 fraction | Change from GRMD Baseline (fraction) (Brain-derived neurotrophic factor (BDNF), EDG-5506 treatment to GRMD baseline): 0.0859 fraction | Change from GRMD Baseline (fraction) (Brain-derived neurotrophic factor (BDNF), Post-Treatment to GRMD baseline): -0.07 fraction | Change from GRMD Baseline (fraction) (Calcium/calmodulin-dependent 3',5'-cyclic nucleotide phosphodiesterase 1A (PDE1A), EDG-5506 treatment to GRMD baseline): 0.0363 fraction | Change from GRMD Baseline (fraction) (Calcium/calmodulin-dependent 3',5'-cyclic nucleotide phosphodiesterase 1A (PDE1A), Post-Treatment to GRMD baseline): -0.0044 fraction | Change from GRMD Baseline (fraction) (Carbohydrate sulfotransferase 15 (CHST15), EDG-5506 treatment to GRMD baseline): 0.0872 fraction | Change from GRMD Baseline (fraction) (Carbohydrate sulfotransferase 15 (CHST15), Post-Treatment to GRMD baseline): -0.1346 fraction | Change from GRMD Baseline (fraction) (Carbonic anhydrase 7 (CA7), EDG-5506 treatment to GRMD baseline): 0.1779 fraction | Change from GRMD Baseline (fraction) (Carbonic anhydrase 7 (CA7), Post-Treatment to GRMD baseline): 0.1249 fraction | Change from GRMD Baseline (fraction) (Cathepsin G (CTSG), EDG-5506 treatment to GRMD baseline): 0.0969 fraction | Change from GRMD Baseline (fraction) (Cathepsin G (CTSG), Post-Treatment to GRMD baseline): 0.1704 fraction | Change from GRMD Baseline (fraction) (Cathepsin H (CTSH), EDG-5506 treatment to GRMD baseline): 0.1349 fraction | Change from GRMD Baseline (fraction) (Cathepsin H (CTSH), Post-Treatment to GRMD baseline): -0.0348 fraction | Change from GRMD Baseline (fraction) (Ciliary neurotrophic factor (CNTF), EDG-5506 treatment to GRMD baseline): 0.2366 fraction | Change from GRMD Baseline (fraction) (Ciliary neurotrophic factor (CNTF), Post-Treatment to GRMD baseline): 0.313 fraction | Change from GRMD Baseline (fraction) (Collectin-11 (COLEC11), EDG-5506 treatment to GRMD baseline): -0.1017 fraction | Change from GRMD Baseline (fraction) (Collectin-11 (COLEC11), Post-Treatment to GRMD baseline): -0.0756 fraction | Change from GRMD Baseline (fraction) (Complement component C7 (C7), EDG-5506 treatment to GRMD baseline): 0.118 fraction | Change from GRMD Baseline (fraction) (Complement component C7 (C7), Post-Treatment to GRMD baseline): 0.1005 fraction | Change from GRMD Baseline (fraction) (Contactin-2 (CNTN2), EDG-5506 treatment to GRMD baseline): 0.1036 fraction | Change from GRMD Baseline (fraction) (Contactin-2 (CNTN2), Post-Treatment to GRMD baseline): -0.068 fraction | Change from GRMD Baseline (fraction) (Cytotoxic T-lymphocyte protein 4 (CTLA4), EDG-5506 treatment to GRMD baseline): 0.1272 fraction | Change from GRMD Baseline (fraction) (Cytotoxic T-lymphocyte protein 4 (CTLA4), Post-Treatment to GRMD baseline): 0.041 fraction | Change from GRMD Baseline (fraction) (Delta-like protein 4 (DLL4), EDG-5506 treatment to GRMD baseline): 0.0825 fraction | Change from GRMD Baseline (fraction) (Delta-like protein 4 (DLL4), Post-Treatment to GRMD baseline): -0.0212 fraction | Change from GRMD Baseline (fraction) (Dickkopf-related protein 3 (DKK3), EDG-5506 treatment to GRMD baseline): 0.0897 fraction | Change from GRMD Baseline (fraction) (Dickkopf-related protein 3 (DKK3), Post-Treatment to GRMD baseline): -0.0042 fraction | 3-hydroxyisobutyrate dehydrogenase, mitochondrial (HIBADH): Change from GRMD Baseline (fraction) [1]: 0.1537 fraction | 14-3-3 protein beta/alpha (YWHAB): Change from GRMD Baseline (fraction) [1]: -0.0886 fraction | 14-3-3 protein sigma (SFN): Change from GRMD Baseline (fraction) [1]: 0.3172 fraction | 72 kDa type IV collagenase (MMP2): Change from GRMD Baseline (fraction) [1]: 0.1734 fraction | Adrenomedullin (ADM): Change from GRMD Baseline (fraction) [1]: -0.0855 fraction | Aggrecan core protein (ACAN): Change from GRMD Baseline (fraction) [1]: 0.167 fraction | Alpha-synuclein (SNCA): Change from GRMD Baseline (fraction) [1]: 0.0584 fraction | Apolipoprotein B (APOB): Change from GRMD Baseline (fraction) [1]: 0.074 fraction | Appetite-regulating hormone (GHRL): Change from GRMD Baseline (fraction) [1]: 0.1979 fraction | Atrial natriuretic factor (NPPA): Change from GRMD Baseline (fraction) [1]: 0.1398 fraction | BDNF/NT-3 growth factors receptor (NTRK2): Change from GRMD Baseline (fraction) [1]: 0.1937 fraction | BH3-interacting domain death agonist (BID): Change from GRMD Baseline (fraction) [1]: 0.1126 fraction | Bcl-2-related protein A1 (BCL2A1): Change from GRMD Baseline (fraction) [1]: -0.0911 fraction | Bone morphogenetic protein 6 (BMP6): Change from GRMD Baseline (fraction) [1]: 0.2555 fraction | Bone morphogenetic protein 10 (BMP10): Change from GRMD Baseline (fraction) [1]: 0.1398 fraction | C-X-C motif chemokine 10 (CXCL10): Change from GRMD Baseline (fraction) [1]: 0.1922 fraction | C-type mannose receptor 2 (MRC2): Change from GRMD Baseline (fraction) [1]: 0.1728 fraction | CD166 antigen (ALCAM): Change from GRMD Baseline (fraction) [1]: 0.2333 fraction | Cadherin-5 (CDH5): Change from GRMD Baseline (fraction) [1]: 0.1109 fraction | Carboxypeptidase E (CPE): Change from GRMD Baseline (fraction) [1]: 0.0406 fraction | Cell adhesion molecule 1 (CADM1): Change from GRMD Baseline (fraction) [1]: 0.0424 fraction | Chromogranin-A (CHGA): Change from GRMD Baseline (fraction) [1]: 0.2322 fraction | Ciliary neurotrophic factor receptor subunit alpha (CNTFR): Change from GRMD Baseline (fraction) [1]: 0.1045 fraction | Ck-beta-8-1 (CCL23): Change from GRMD Baseline (fraction) [1]: 0.0708 fraction | Coiled-coil domain-containing protein 80 (CCDC80): Change from GRMD Baseline (fraction) [1]: -0.0672 fraction | Collagen alpha-1(VIII) chain (COL8A1): Change from GRMD Baseline (fraction) [1]: 0.2128 fraction | Collagenase 3 (MMP13): Change from GRMD Baseline (fraction) [1]: -0.0939 fraction | Collectin-12 (COLEC12): Change from GRMD Baseline (fraction) [1]: 0.2006 fraction | Complement component C1q receptor (CD93): Change from GRMD Baseline (fraction) [1]: 0.1785 fraction | Complement decay-accelerating factor (CD55): Change from GRMD Baseline (fraction) [1]: -0.0957 fraction | Contactin-1 (CNTN1): Change from GRMD Baseline (fraction) [1]: 0.0923 fraction | Corticotropin (POMC): Change from GRMD Baseline (fraction) [1]: -0.096 fraction | Cytotoxic and regulatory T-cell molecule (CRTAM): Change from GRMD Baseline (fraction) [1]: -0.015 fraction | Dickkopf-related protein 1 (DKK1): Change from GRMD Baseline (fraction) [1]: 0.2889 fraction | Dickkopf-related protein 4 (DKK4): Change from GRMD Baseline (fraction) [1]: 0.1406 fraction | E3 ubiquitin-protein ligase ZNRF3 (ZNRF3): Change from GRMD Baseline (fraction) [1]: -0.0555 fraction | Ephrin type-A receptor 5 (EPHA5): Change from GRMD Baseline (fraction) [1]: 0.0759 fraction | Ephrin-A2 (EFNA2): Change from GRMD Baseline (fraction) [1]: 0.0899 fraction | Ephrin-A5 (EFNA5): Change from GRMD Baseline (fraction) [1]: 0.0839 fraction | Epidermal growth factor receptor (EGFR): Change from GRMD Baseline (fraction) [1]: 0.2223 fraction | Estradiol 17-beta-dehydrogenase 1 (HSD17B1): Change from GRMD Baseline (fraction) [1]: 0.1223 fraction | Fatty acid-binding protein, epidermal (FABP5): Change from GRMD Baseline (fraction) [1]: 0.0517 fraction | Fc receptor-like protein 3 (FCRL3): Change from GRMD Baseline (fraction) [1]: -0.0177 fraction | GDNF family receptor alpha-2 (GFRA2): Change from GRMD Baseline (fraction) [1]: 0.1299 fraction | Galectin-8 (LGALS8): Change from GRMD Baseline (fraction) [1]: 0.0779 fraction | Galectin-9 (LGALS9): Change from GRMD Baseline (fraction) [1]: -0.04 fraction | Gamma-enolase (ENO2): Change from GRMD Baseline (fraction) [1]: 0.1938 fraction | Gastrin-releasing peptide (GRP): Change from GRMD Baseline (fraction) [1]: 0.0715 fraction | Glutamate carboxypeptidase 2 (FOLH1): Change from GRMD Baseline (fraction) [1]: 0.301 fraction | Glypican-2 (GPC2): Change from GRMD Baseline (fraction) [1]: 0.2818 fraction | Gremlin-1 (GREM1): Change from GRMD Baseline (fraction) [1]: 0.117 fraction | Growth/differentiation factor 8 (MSTN): Change from GRMD Baseline (fraction) [1]: 0.0197 fraction | Growth/differentiation factor 11/8 (GDF11 MSTN): Change from GRMD Baseline (fraction) [1]: 0.039 fraction | Hemoglobin (HBA1 HBB): Change from GRMD Baseline (fraction) [1]: -0.194 fraction | Heparin cofactor 2 (SERPIND1): Change from GRMD Baseline (fraction) [1]: 0.095 fraction | Hepatitis A virus cellular receptor 2 (HAVCR2): Change from GRMD Baseline (fraction) [1]: -0.0356 fraction | High affinity immunoglobulin gamma Fc receptor I (FCGR1A): Change from GRMD Baseline (fraction) [1]: 0.1553 fraction | Histone-lysine N-methyltransferase EHMT2 (EHMT2): Change from GRMD Baseline (fraction) [1]: 0.3323 fraction | Hyaluronan and proteoglycan link protein 1 (HAPLN1): Change from GRMD Baseline (fraction) [1]: 0.0551 fraction | Insulin-like growth factor 1 receptor (IGF1R): Change from GRMD Baseline (fraction) [1]: 0.1691 fraction | Integrin alpha-V: beta-5 complex (ITGAV ITGB5): Change from GRMD Baseline (fraction) [1]: -0.051 fraction | Interleukin-4 receptor subunit alpha (IL4R): Change from GRMD Baseline (fraction) [1]: 0.1823 fraction | Interleukin-18-binding protein (IL18BP): Change from GRMD Baseline (fraction) [1]: 0.0143 fraction | Interstitial collagenase (MMP1): Change from GRMD Baseline (fraction) [1]: 0.0861 fraction | Leucine-rich repeat transmembrane neuronal protein 3 (LRRTM3): Change from GRMD Baseline (fraction) [1]: 0.2512 fraction | Limbic system-associated membrane protein (LSAMP): Change from GRMD Baseline (fraction) [1]: 0.1355 fraction | Lymphocyte activation gene 3 protein (LAG3): Change from GRMD Baseline (fraction) [1]: 0.164 fraction | Lysosome membrane protein 2 (SCARB2): Change from GRMD Baseline (fraction) [1]: 0.1336 fraction | MHC class I polypeptide-related sequence B (MICB): Change from GRMD Baseline (fraction) [1]: 0.2058 fraction | Matrilin-2 (MATN2): Change from GRMD Baseline (fraction) [1]: -0.0022 fraction | Melanoma-derived growth regulatory protein (MIA): Change from GRMD Baseline (fraction) [1]: 0.1875 fraction | Moesin (MSN): Change from GRMD Baseline (fraction) [1]: -0.082 fraction | Muellerian-inhibiting factor (AMH): Change from GRMD Baseline (fraction) [1]: 0.0498 fraction | NKG2D ligand 1 (ULBP1): Change from GRMD Baseline (fraction) [1]: -0.0534 fraction | NT-3 growth factor receptor (NTRK3): Change from GRMD Baseline (fraction) [1]: 0.1168 fraction | Netrin receptor UNC5C (UNC5C): Change from GRMD Baseline (fraction) [1]: 0.03 fraction | Neurogenic locus notch homolog protein 2 (NOTCH2): Change from GRMD Baseline (fraction) [1]: 0.2188 fraction | Neurogenic locus notch homolog protein 3 (NOTCH3): Change from GRMD Baseline (fraction) [1]: 0.0936 fraction | Nuclear receptor subfamily 1 group D member 1 (NR1D1): Change from GRMD Baseline (fraction) [1]: 0.048 fraction | Phospholipase A2 (PLA2G1B): Change from GRMD Baseline (fraction) [1]: 0.0754 fraction | Placenta growth factor (PGF): Change from GRMD Baseline (fraction) [1]: -0.066 fraction | Plasminogen (PLG): Change from GRMD Baseline (fraction) [1]: 0.2052 fraction | PolyUbiquitin K63-linked (UBC): Change from GRMD Baseline (fraction) [1]: 0.2167 fraction
